The test system of one assay is normal human melanocytes. Description: Melanin production inhibition test using cultured normal human melanocytes (14C-thiouracil incorporation). It counts as cell-based. To be noted: Homo sapiens, Melanocyte; for activity at 5 µM: addition amount 5.0 μM. On the procedure: The inhibitory effect on melanin production of the melanin production inhibitor of the present invention can be measured using thiouracil which is incorporated specifically into cells in a melanin synthesis process in the cells. For example, the amount of melanin production can be measured by measuring an amount of thiouracil incorporated into cells by measuring an amount of radiation with radiolabeled thiouracil.
The inhibitory effect on melanin production of Compound 1 was evaluated using 2-thiouracil (^14C-labeled 2-thiouracil was used in this test) which is incorporated specifically into melanin in an intracellular melanin synthesis process. Complete medium for culture of melanocytes (manufactured by Kurabo Industries Ltd.) was added to 15 wells in a 24-well plate in an amount of 2 mL per well, and normal human melanocytes (manufactured by Kurabo Industries Ltd.) were seeded into the wells at a concentration of 1.5×10^4 cells/cm^2. The cells were cultured in a 5% carbon dioxide atmosphere at 37° C. for 24 hours. Thereafter, the medium in all the wells was exchanged under the following conditions: fresh complete medium for culture of melanocytes (control) was used in three wells; each of complete medium for culture of melanocytes, which including Compound 1 at concentrations of 1.0 μM, 2.0 μM, and 4.0 μM, was used in a total of nine wells including three wells for each concentration; and complete medium for culture of melanocytes, each of which including arbutin (positive control) known as a melanin production inhibitor at a concentration of 0.5 mM (500 μM), was used in the other three wells. Further, 2-[2-^14C]thiouracil (^14C-labeled thiouracil) was added to each of these 15 wells at 0.25×10^−6 Ci (curie). Then, the cells were cultured for further 3 days under the same conditions as the above. After the completion of culture, the culture medium was removed from the wells, and the cells were washed with phosphate buffered physiological saline (PBS) and then separated from the bottoms of the wells with medium including trypsin and EDTA to prepare cell suspensions, followed by centrifugation to collect the cells. The number of the cells was counted using a hemocytometer. Thereafter, the amounts of ^14C-thiouracil in the cells collected from each well (0.25×10^−6 Ci) were measured using a liquid scintillation counter (ALOKA CO., LTD.). The percentages of an amount of radioactivity in the cells cultured in the medium including the test substances with respect to an amount of radioactivity in the cells collected from the well of the control were calculated as amounts of melanin (%). That is, as the amount of radioactivity incorporated into the cells is smaller, the amount of melanin is evaluated to be smaller, i.e., the melanin inhibition effect of the component added is evaluated to be larger.
Inhibitory effects on melanin production of Compounds 2 to 39 (however, the effects of Compound 9 and 15 were not measured) were examined in the same procedure as in Test Example 1.
These were examined in the same procedure as in Test Example 1.
Further, the results of melanin production inhibition by treatment with the respective test compounds, determined in the same procedure as in Test Example 1, are also shown in the table.

Assay [1] deals with ultraviolet ray-induced pigmentation. The assay is described as follows: Ultraviolet ray-induced pigmentation inhibition test using pigmented guinea pigs. It counts as in vivo. Particulars: for ΔL* value: 1% (w/v) in ethanol, 30 μL once a day for 6 weeks, L* day 57 minus L* day 15, mean ± SD of eight animals; for inhibition of pigmentation induced by ultraviolet rays (in words): applied to the skin at a concentration of 1%. From the text:
The hair of the dorsal skin of each of eight pigmented guinea pigs was removed and shaved using an electrical hair clipper and shaver, and each of the sites was covered with a black cloth having a total of four (two on the top and bottom and two on the right and left) irradiation windows with a size of 2×2 cm, and then irradiated with ultraviolet rays of 300 mJ/cm^2 using FL20S•E30 lamp as a light source. This operation was repeated on days 1, 3, 5, 8, 10, and 12 after the start of the test to induce pigmentation on the four test sites.
Compound 2, Compound 3, and Compound 4 were dissolved in ethanol at a concentration of 1% (w/v) to prepare samples for application. Further, as a control, ethanol was used alone as a sample for application.
On day 15 of the test, application of the samples was started. The respective samples were applied to the predetermined test sites once a day in an amount of 30 μL, and the application was continued for 6 weeks (until day 56 of the test).
On the day of the start of application (day 15 of the test) and after the completion of application for 6 weeks (on day 57 of the test), the skin brightness (L* value) of each of the test sites was measured using a colorimeter (CR-200, Konica Minolta Holdings, Inc.), and a ΔL* value was calculated by subtracting an L* value on day 15 of the test from an L* value on day 57 of the test. […] As degree of the pigmentation becomes stronger, the L* value becomes smaller. Therefore, it can be evaluated that, as the ΔL* value becomes larger, pigmentation is more inhibited.

In assay [2] the test system is Trichopyton mentagrophytes (ATCC18748). The assay is described as follows: Measurement of antimycotic activity (Alamar Blue growth inhibition of dermatophytes). It counts as cell-based. Particulars: for MIC80: read-out: MIC80 Concentration. On the procedure:
10.4 g of RPMI1640 (manufactured by SAFC Biosciences) were dissolved in 900 mL of distilled water, and 34.53 g of a 0.165 M MOPS buffer (manufactured by DOJINDO LABORATORIES) were added and dissolved by stirring.
Dermatophytes (Trichopyton mentagrophytes (ATCC18748)) were inoculated into a 1/10 Sabouraud Dextrose agar medium (manufactured by DIFCO) and cultured at 28° C. for 14 days, and then a conidial suspension was prepared using 0.1% Tween80-including physiological saline. The suspension was filtered through gauze, and the number of the conidia was counted using a hemocytometer and then adjusted to 2.5×10^5/mL with the RPMI1640 medium. The resultant suspension was used as an inoculum.
Compound 5 and clotrimazole were diluted with the RPMI1640 medium to prepare 0.3125, 0.625, 1.25, 2.5, 5, 10, 20, and 200 μg/mL diluted solutions. The diluted solutions having different concentrations were dispensed into a 96-well flat-bottom microplate in an amount of 100 μL per well, and 80 μL of the inoculum and 20 μL of an Alamar Blue solution (manufactured by Nalgene) were further added thereto. Further, 80 μL of the inoculum and 20 μL of the Alamar Blue solution were added to 100 μL of the RPMI1640 medium in growth control wells, and 20 μL of the Alamar Blue solution was added to 180 μL of the RPMI1640 medium in negative control wells. The microplate was placed in a chamber in which the humidity was kept constant, and culture was started at 27° C., and the cells were observed every 24 hours. 120 hours from beginning of culture, i.e., when the growth control became obviously red (reduced form), absorbance measurement at 570 nm was performed using a microplate reader (SPECTRAMAX 250, manufactured by Molecular Device).
The test compounds were tested at the respective concentrations in triplicate. The growth inhibition rate (%) of each of the test compound-added groups was determined by the following equation based on a value calculated by subtracting an average absorbance value of the negative control from an average absorbance value of the growth control and the test compound-added wells. Further, […] (minimum inhibitory concentration; the minimum concentration at which the growth inhibition rate is 80% or more) was calculated from the growth inhibition rate of each test compound. Growth inhibition rate (%)=[1−(average absorbance value in test compound-added wells-average absorbance value of negative control)/(average absorbance value of growth control-average absorbance value of negative control)]×100
Compound 1, Compounds 3 to 6, Compound 40, Compound 41, triphenylmethylamine, triphenylmethanol, triphenylmethane, aminodiphenylmethane, and clotrimazole were diluted with the RPMI1640 medium to prepare 0.3125, 0.625, 1.25, 2.5, 5, 10, 20, and 200 μg/mL diluted solutions. The diluted solutions having different concentrations were dispensed into a 96-well flat-bottom microplate in an amount of 100 μl, per well, and 80 μL of the inoculum and 20 μl, of an Alamar Blue solution (manufactured by Nalgene) were further added thereto. Further, 80 μl, of the inoculum and 20 μl, of the Alamar Blue solution were added to 100 μL of the RPMI1640 medium in growth control wells, and 20 μL of the Alamar Blue solution was added to 180 μL of the RPMI1640 medium in negative control wells. The microplate was placed in a chamber in which the humidity was kept constant, and then culture was started at 27° C., and the cells were observed every 24 hours. 120 hours from beginning of culture, i.e., when the growth control became obviously red (reduced form), absorbance measurement at 570 nm was performed using a microplate reader (SPECTRAMAX 250, manufactured by Molecular Device).
The test compounds were tested at the respective concentrations in triplicate. […]

Where [3] appears, read: minimum concentration at which the growth inhibition rate is 80% or more.

Converted amounts (≈) assume the structure as drawn. Where two headings read alike, the source gives them in different places. Some results are limits rather than exact numbers.

Consider three compounds from patent US8846012B2, “Melanin production inhibitor” (Pola Chemical Industries Inc., priority 2008, dated 2014).

In the case of `OCCOC(c1ccccc1)(c1ccccc1)c1ccccc1` [Compound 2, 2-(triphenylmethyloxy)ethanol], the activity at 5 µM in the assay with normal human melanocytes (Table 2, control = 100%) turned out to be 44 ± 3.2%. In assay [1], the “ΔL* value” is 3.9 ± 0.94 and the “inhibition of pigmentation induced by ultraviolet rays (in words)” value (“inhibition of pigmentation induced” for short) is “obviously inhibited pigmentation induced by ultraviolet rays”.
In the assay with normal human melanocytes (Table 2, control = 100%), `OCCNC(c1ccccc1)(c1ccccc1)c1ccccc1` [Compound 3, 2-(triphenylmethylamino)ethanol] returned an activity at 5 µM of 51.6 ± 4.2%. For the same compound, the activity at 10 µM with normal human melanocytes (Table 7, treatment concentration 10 μM, read-out: Amount of melanin) is 22.3 ± 0.63%. Besides, in assay [1], the “ΔL* value” is reported as 3.9 ± 0.52 and the “inhibition of pigmentation induced” value is given as “obviously inhibited pigmentation induced by ultraviolet rays”. For the same compound, in assay [2] (added at a concentration of 100 μg/mL), the “growth inhibitory effect on Trichopyton mentagrophytes (in words)” value was “no growth inhibitory effect”. The MIC80 in assay [2] (setting [3]) was above 100 µg/mL.
In the case of `NCCOC(c1ccccc1)(c1ccccc1)c1ccccc1` [Compound 4, 2-(triphenylmethyloxy)ethylamine], the activity at 2 µM in the assay with normal human melanocytes (Table 7, treatment concentration 2 μM, read-out: Amount of melanin) is 34.2 ± 3.58%. In the assay on normal human melanocytes (Table 2, addition amount 2.0 μM, control = 100%), this compound registered an activity at 2 µM of 33.8 ± 0.8%. In assay [1], the “ΔL* value” was determined as 3.4 ± 0.8 and the “inhibition of pigmentation induced” value is given as “obviously inhibited pigmentation induced by ultraviolet rays”. Moreover, in assay [2] (setting [3]), the “MIC80 Concentration” value was found to be 100.0000 µg/mL (≈ 330 µM) and the MIC80 is 100 µg/mL (≈ 330 µM).
